Assay results: ChEMBL document CHEMBL5042526, “Design, Synthesis, and Biological Evaluation of Triazolone Derivatives as Potent PPARα/δ Dual Agonists for the Treatment of Nonalcoholic Steatohepatitis” (J Med Chem, 2022)
Activity calls are given as the source filed them. No cut-off for these calls is given here.

Experiments:
Mus musculus [1] = assay: In vivo agonist activity against PPARalpha/delta assessed as upregulation of Abcg2 mRNA expression in C57BL/6Nifdc mouse liver at 10 mg/kg, po for 4 days; type: functional, organism-based; conditions: time 4.0 day
Mus musculus [2] = assay: Anti-fibrosis effect in CCl4 induced liver fibrosis C57BL/6JNifdc mouse model assessed as decrease in level of hydroxyproline level at 3 to 30 mg/kg, po after 20 hrs […]; type: functional, organism-based; conditions: dose 3-30 mg/kg
Mus musculus [3] = assay: Anti-NASH activity in HF-CDAA-induced nonalcoholic steatohepatitis C57BL/6JNifdc mouse model assessed as reversal of inflammatory infilitration 3 to 30 mg/kg, po by H and E staining method; type: functional, organism-based; conditions: dose 3-30 mg/kg
C2C12 [4] = assay: Agonist activity against PPARalpha/delta (unknown origin) assessed as upregulation of Pdk4 mRNA expression in […] cells at 8 nM incubated for 12 hrs by RT-PCR analysis; type: cell-based; conditions: filed as agonist
Mus musculus [5] = assay: Anti-NASH activity in HF-CDAA-induced nonalcoholic steatohepatitis C57BL/6JNifdc mouse model assessed as lipid number at 3 to 30 mg/kg, po by H and E staining method; type: functional, organism-based; conditions: dose 3-30 mg/kg
AML12 [6] = assay: Agonist activity against PPARalpha/delta (unknown origin) assessed as upregulation of Cpt1A mRNA expression in […] cells incubated for 12 hrs by RT-PCR analysis; type: cell-based; conditions: filed as agonist, dose 8-200 nM
C2C12 [7] = assay: Agonist activity against PPARalpha/delta ( unknown origin) assessed as upregulation of Pdk4 mRNA expression in […] cells incubated for 12 hrs by RT-PCR analysis; type: cell-based; conditions: filed as agonist, dose 8-200 nM
C2C12 [8] = assay: Agonist activity against PPARalpha/delta (unknown origin) assessed as upregulation of Angpt14 mRNA expression in […] cells incubated for 12 hrs by RT-PCR analysis; type: cell-based; conditions: filed as agonist, dose 8-200 nM
Mus musculus [9] = assay: In vivo agonist activity at PPARalpha/delta assessed as upregulation of Mfn2 mRNA expression in C57BL/6Nifdc mouse liver at 10 mg/kg, po for 4 days; type: functional, organism-based; conditions: time 4.0 day
Mus musculus [10] = assay: Anti-fibrosis effect in CCl4 induced liver fibrosis C57BL/6JNifdc mouse model assessed as downregulation of Col1a1 expression at 3 to 30 mg/kg, po after 20 hrs by Western blot analysis; type: functional, organism-based; conditions: dose 3-30 mg/kg
Mus musculus [11] = assay: In vivo agonist activity at PPARalpha/delta assessed as upregulation of Retsat-mRNA expression in C57BL/6Nifdc mouse liver at 10 mg/kg, po for 4 days; type: functional, organism-based; conditions: time 4.0 day
Mus musculus [12] = assay: In vivo agonist activity against PPARalpha/delta assessed as upregulation of Nfkbia-mRNA expression in C57BL/6Nifdc mouse skeletal muscle at 10 mg/kg, po for 4 days; type: functional, organism-based; conditions: time 4.0 day
Mus musculus [13] = assay: In vivo agonist activity at PPARalpha/delta assessed as upregulation of Gpd1 mRNA expression in C57BL/6Nifdc mouse liver at 10 mg/kg, po for 4 days; type: functional, organism-based; conditions: time 4.0 day
Mus musculus [14] = assay: In vivo agonist activity against PPARalpha/delta assessed as upregulation of -Retsat mRNA expression in C57BL/6Nifdc mouse skeletal muscle at 10 mg/kg, po for 4 days; type: functional, organism-based; conditions: time 4.0 day
HepG2 [15] = assay: Agonist activity against PPARalpha/delta (unknown origin) assessed as upregulation of PDK4 mRNA expression in human HepG2 cells at 8 nM incubated for 12 hrs by RT-PCR analysis; type: cell-based; conditions: filed as agonist
Mus musculus [16] = assay: In vivo agonist activity against PPARalpha/delta assessed as upregulation of Acot1 mRNA expression in C57BL/6Nifdc mouse skeletal muscle at 10 mg/kg, po for 4 days; type: functional, organism-based; conditions: time 4.0 day
Mus musculus [17] = assay: In vivo agonist activity against PPARalpha/delta assessed as upregulation of Hilpda-mRNA expression in C57BL/6Nifdc mouse liver at 10 mg/kg, po for 4 days; type: functional, organism-based; conditions: time 4.0 day
HepG2 [18] = assay: Agonist activity against PPARalpha/delta (unknown origin) assessed as upregulation of ACADVL mRNA expression in human HepG2 cells at 8 nM incubated for 12 hrs by RT-PCR analysis; type: cell-based; conditions: filed as agonist
Mus musculus [19] = assay: In vivo agonist activity at PPARalpha/delta assessed as upregulation of Pex11a mRNA expression in C57BL/6Nifdc mouse liver at 10 mg/kg, po for 4 days; type: functional, organism-based; conditions: time 4.0 day
COS7 = assay: Agonist activity at human CAR (48 to 324 residues) in Cos7 cells transfected with LBD-Gal4 and pGL435 Gal4 UAS Luc reporter plasmid at 10 uM by reporter gene assay; type: cell-based
Mus musculus [20] = assay: Anti-inflammatory activity in HF-CDAA-induced nonalcoholic steatohepatitis C57BL/6JNifdc mouse model assessed as decrease in Adgre1 mRNA expression at 10 mg/kg, po; type: functional, organism-based
Mus musculus [21] = assay: In vivo agonist activity at PPARalpha/delta assessed as upregulation of Lpin2 mRNA expression in C57BL/6Nifdc mouse liver at 10 mg/kg, po for 4 days; type: functional, organism-based; conditions: time 4.0 day
Mus musculus [22] = assay: Anti-fibrosis effect in HF-CDAA-induced nonalcoholic steatohepatitis C57BL/6JNifdc mouse model assessed as expression of Acta2 marker at 10 mg/kg, po after 20 hrs by Western blot analysis; type: functional, organism-based
Mus musculus [23] = assay: Anti-NASH activity in HF-CDAA-induced nonalcoholic steatohepatitis C57BL/6JNifdc mouse model assessed as decrease in level of serum ALT 10 mg/kg, po by automatic biochemical analysis; type: functional, organism-based
Mus musculus [24] = assay: In vivo agonist activity against PPARalpha/delta assessed as upregulation of Cpt1b mRNA expression in C57BL/6Nifdc mouse skeletal muscle at 10 mg/kg, po for 4 days; type: functional, organism-based; conditions: time 4.0 day
Mus musculus [25] = assay: Anti-fibrosis effect in CCl4 induced liver fibrosis C57BL/6JNifdc mouse model assessed as downregulation of alpha-SMA expression at 3 to 30 mg/kg, po after 20 hrs by Western blot analysis; type: functional, organism-based; conditions: dose 3-30 mg/kg
Mus musculus [26] = assay: In vivo agonist activity at PPARalpha/delta assessed as upregulation of Lpf5 mRNA expression in C57BL/6Nifdc mouse liver at 10 mg/kg, po for 4 days; type: functional, organism-based; conditions: time 4.0 day
AML12 [27] = assay: Agonist activity against PPARalpha/delta (unknown origin) assessed as upregulation of Pdk4 mRNA expression in […] cells incubated for 12 hrs by RT-PCR analysis; type: cell-based; conditions: filed as agonist, dose 8-200 nM
Mus musculus [28] = assay: In vivo agonist activity against PPARalpha/delta assessed as upregulation of Hadn-mRNA expression in C57BL/6Nifdc mouse liver at 10 mg/kg, po for 4 days; type: functional, organism-based; conditions: time 4.0 day
Mus musculus [29] = assay: In vivo agonist activity at PPARalpha/delta assessed as upregulation of Acadm-mRNA expression in C57BL/6Nifdc mouse liver at 10 mg/kg, po for 4 days; type: functional, organism-based; conditions: time 4.0 day
Mus musculus [30] = assay: In vivo agonist activity against PPARalpha/delta assessed as upregulation of -Cidea mRNA expression in C57BL/6Nifdc mouse skeletal muscle at 10 mg/kg, po for 4 days; type: functional, organism-based; conditions: time 4.0 day
THP-1 = assay: Anti-inflammatory activity in human THP1-derived macrophages assessed as decrease in secretion of LPS-induced TNF-alpha level at 8 to 200 nM for 12 hrs by ELISA kit method; type: functional, cell-based; conditions: dose 8-200 nM
Mus musculus [31] = assay: In vivo agonist activity against PPARalpha/delta assessed as upregulation of Fabp1 mRNA expression in C57BL/6Nifdc mouse liver at 10 mg/kg, po for 4 days; type: functional, organism-based; conditions: time 4.0 day

For `Cc1cc(Cn2ncn(-c3ccc(OC(F)(F)F)cc3)c2=O)cc(C)c1OC(C)(C)C(=O)O`, the Activity (Mus musculus [1]) was “Active”, the Activity (Mus musculus [2]) was “Active” and the Activity (Mus musculus [3]) was “Active”. For the same molecule, the Activity (C2C12 [4]) was “Active”, the Activity (Mus musculus [5]) was “Active” and the Activity (AML12 [6]) was “Dose-Dependent Effect”. For the same molecule, the Activity (C2C12 [7]) was “Dose-Dependent Effect”, the Activity (C2C12 [8]) was “Dose-Dependent Effect” and the Activity (Mus musculus [9]) was “Active”. For the same molecule, the Activity (Mus musculus [10]) was “Active”, the Activity (Mus musculus [11]) was “Active” and the Activity (Mus musculus [12]) was “Active”. For the same molecule, the Activity (Mus musculus [13]) was “Active”, the Activity (Mus musculus [14]) was “Active” and the Activity (HepG2 [15]) was “Active”. The Activity (Mus musculus [16]) was “Active”, the Activity (Mus musculus [17]) was “Active” and the Activity (HepG2 [18]) was “Active”. The Activity (Mus musculus [19]) was “Active”, the Activity (COS7) was “inactive” and the Activity (Mus musculus [20]) was “Active”. For the same molecule, the Activity (Mus musculus [21]) was “Active”, the Activity (Mus musculus [22]) was “Active” and the Activity (Mus musculus [23]) was “Active”. The Activity (Mus musculus [24]) was “Active”, the Activity (Mus musculus [25]) was “Active” and the Activity (Mus musculus [26]) was “Active”. The Activity (AML12 [27]) was “Dose-Dependent Effect”, the Activity (Mus musculus [28]) was “Active” and the Activity (Mus musculus [29]) was “Active”. The Activity (Mus musculus [30]) was “Active”, the Activity (THP-1) was “Active” and the Activity (Mus musculus [31]) was “Active”.
